Series [1] addresses isoprenylation enzymes. To be noted: cited from earlier work.
Series [2] has as its system wound healing process. The series can be described thus: Healing after scarification of the skin in hairless Skh-1 mice. To be noted: 10 mg/kg/day topical in maize oil, 8 days.
Protocol: 6 female mice hairless Skh-1 with an average weight of 20-25 g were used.
Each mouse was submitted to a scarification of the skin on each flank.
The daily topical treatment begun 1 hour before the scarification and was continued 8 days after the scarification.
Daily observations and photographs were performed in order to follow the healing process.
For series [3], the system named is skin inflammation. The series can be described thus: Mouse chronic skin inflammation model (TPA). It counts as in vivo. As to conditions: 10 mg/kg/day topical, 10 days. As for the experimental part:
100 μl of a TPA solution were applied daily on the dorsal surfaces of mice during seven days (from J4 to J10) at a concentration of 0.2 mg/ml.
The daily topical treatment begun 3 days before the induction of skin inflammation (=Ji) and was continued 7 days after the induction of skin inflammation (=J10).
From J4 to J10, the assayed products were applied 30 minutes before the application of TPA on the same skin area.
The mice were anaesthetized by intraperitoneal injection of a mixture of Ketamine (Ketamine 1000, Virbac, Carros, France) and Xylazine (Rompun 2%, Bayer Healthcare, Kiel, Allemagne). (2/3-1/3 vol/vol) at a dosis of 8 ml/kg. Blood (1 ml) was punctured intracardiacally after the last treatment. Blood samples were stored at +4° C. during 20 to 30 minutes then centrifuged at 1500 g for 15 minutes. Serums were removed, freezed at −20° C. and stored at −80° C. until pro-inflammatory cytokines dosage.
Dorsal skin samples were removed, fixed and stored in formaldehyde (Rotr-Histofix 4%, Carl Roth, Karlsruhe, Allemagne) until histopathological analysis.
Kruskal-Wallis test followed possibly by the Mann-Whitney test was used to compare the different studied variables of the treated groups by comparison with the groups “Control” and “TPA+Control”. Significativity threshold was settled at P<0.05.

The test system of series [4] is colon inflammation. The series can be described thus: Preventive anti-inflammatory effects in a rat colitis model (TNBS). The series is classed as in vivo. As to conditions: for average lengths of the colons vs group TNBS/Control / microscopic score of the colons: 6 days after induction; for average macroscopic score of the colons (Mean ± ESM): colons removed 6 days after induction, n = 6; for rats average weights vs group TNBS/Control: J6. On the procedure:
Average macroscopic and microscopic scores of the colons sampled 6 days after the induction of colon inflammation were compared.
Colon inflammation was induced by a unique rectal administration of a 2,4,6-trinitrobenzen-sulfonic acid solution (TNBS, Fluka, France). TNBS was dissolved in 40° alcohol at a concentration of 50 mg/ml. Animals were anaesthetised intraperitoneally by 2 mg/kg of Calmivet (Vetoquinol, Lure, France) and 50 mg/kg of Ketamine (Ketamine 1000, Virbac, Carros, France). 0.4 ml of the TNBS solution was administered rectally and the rats were maintained during at least 30 minutes to avoid the releasing of the TNBS.
Kruskal-Wallis test followed possibly by the Mann-Whitney test was used to compare the different studied variables of the treated groups by comparison with the groups “Control” and “TNBS/Control”. Significativity threshold was settled at P<0.05.

Series [5] relates to repaired extensor tendon, wound contraction, epithelialization. As to conditions: in vivo; cited from earlier work.
For series [6] the following is noted: at doses which may have clinical activity; cited from earlier work.

In the case of `C=C(C)[C@@H]1CC=C(CO)CC1` [Perillyl alcohol, (S)-4-Isopropenyl-1-cyclohexenylmethanol], the “IC50 values, isoprenylation enzymes” value in series [1] is recorded as “low mM range”. In series [2], the “wound healing process in comparison with corn oil alone” value is listed as “much better results” and the “wound healing process in comparison with limonene” value is given as “better results”. For the same compound, in series [3], the “average macroscopic score of skin inflammation vs group TPA+Limonene” value was “significantly lower”, the “average macroscopic scores of skin inflammation vs group TPA+control” value is recorded as “significantly lower”, the “average microscopic scores of skin inflammation vs group TPA+control” value was “significantly lower” and the “average serum level of IL-1β vs TPA+control group” value is “tendency to be significantly lower”. In series [3], the “average serum level of IL-6 vs TPA+control group” value was “significantly lower”; the “average serum level of TNF-α vs TPA+control group” value is on record as “significantly lower”; the “histopathological analysis of the skin samples” value is “skins were little inflammatory; showed non-specific inflammatory skin lesions without epidermis ulceration and with an inflammatory rarely marked”. For the same compound, in series [3] (TPA-treated mice), the “Average serum levels of IL-1β (Mean ± ESM)” value was determined as 5.3 ± 1.7 pg/mL, the “Average serum levels of IL-6 (Mean ± ESM)” value came to 13.0 ± 3.8 pg/mL and the “Average serum levels of TNF-α (Mean ± ESM)” value was 80.6 ± 24.7 pg/mL.

As for S-limonene [reference compound], in series [1], the “inhibition of the isoprenylation enzymes” value is recorded as “weak inhibitors”.

With `C=C(C)[C@@H]1CC=C(C(=O)O)CC1` [perillic acid, reference compound], the “IC50 values, isoprenylation enzymes” value in series [1] is reported as “low mM range”.

With `CC(C)Cc1ccc([C@H](C)C(=O)O)cc1` [Ibuprofen, (S)-(+)-Ibuprofen, reference compound], in series [4] (50 mg/kg daily oral), the “average macroscopic scores of the colons vs groups TNBS/Control and TNBS/Limonene 100” value was “significantly lower”; the “average lengths of the colons vs group TNBS/Control” value is “significantly lower”; the “average macroscopic score of the colons (Mean ± ESM)” value is on record as 4.7 ± 2.7. Besides, in series [4] (Ibuprofen 50 mg/kg daily oral), the “rats average weights vs group TNBS/Control” value is “not significantly different”. Besides, the “breaking strength of the repaired extensor tendon, wound contraction, and epithelialization” value in series [5] is listed as “reduce”.

For `C=C(C)[C@H]1CC=C(C)CC1` [Limonene, (4R)-1-methyl-4-isopropenylcyclohex-1-ene], in series [4] (10 mg/kg daily oral), the “average macroscopic scores of the colons vs groups TNBS/Control and TNBS/Limonene 100” value is recorded as “significantly lower”; the “average lengths of the colons vs group TNBS/Control” value is given as “significantly lower”; the “microscopic score of the colons” value amounted to 2; the “average macroscopic score of the colons (Mean ± ESM)” value stood at 6.5 ± 1.3. In series [4] (100 mg/kg daily oral), the “average lengths of the colons vs group TNBS/Control” value was “significantly lower”, the “microscopic score of the colons” value is listed as 4 and the “average macroscopic score of the colons (Mean ± ESM)” value is on record as 10.7 ± 2.7. Moreover, the “rats average weights vs group TNBS/Control” value in series [4] (Limonene 10 mg/kg daily oral) was “not significantly different”. Further, the “rats average weights vs group TNBS/Control” value in series [4] (Limonene 100 mg/kg daily oral) is reported as “not significantly different”. The “circulating TNF-α level” value in series [4] (at a concentration five times inferior to the concentrations of Ibuprofen) was “decreased”. Further, in series [4] (oral administration, colons sampled 6 days after induction), the “post-inflammatory tissue repair, compared with ibuprofen” value is “induced post-inflammatory tissue repair”. Besides, in series [1], the “inhibition of the isoprenylation enzymes” value is “weak inhibitors”. For the same compound, the “tolerance in cancer patients” value in series [6] is recorded as “well tolerated”.

The record behind these values is patent publication US20100305214A1, “Use of a Monoterpene to Increase Tissue Repair” (Aisa Therapeutics, priority 2007, published 2010).
